The record followed here is paper PMC4032254, “Targeting of the MYCN Protein with Small Molecule c-MYC Inhibitors” (PLoS ONE, 2014).

Molecules are shown by their SMILES. pKd: −log10 of the molar value.

For experiment [1], the target named is T1, bHLHZip domain of human c-MYC (353–437) (Homo sapiens, UniProt P01106).
T1 construct: N-terminally His-tagged bHLHZip c-MYC (353–437) and bHLHZip MYCN (380–464) proteins were over-expressed in E. coli BL21 (DE3); made in house; host or cells: E. coli BL21 (DE3)
Description: Surface plasmon resonance binding to bHLHZip of c-MYC. To be noted: SPR, 25°C, steady state, mean ± SD. The procedure: (§1) For all SPR binding measurements the compounds were injected at increasing concentrations.
(§2) In order to determine the affinity of the compounds to c-MYC and MYCN, the response for each small molecule was plotted against the analyte (compound) concentration. The KD was defined as the concentration of analyte at 50% of the experimental maximal Response (Rmax). Approximate KD-values could be determined for all compounds except for #764. […] In summary, all active c-MYC inhibitors tested were also found to bind directly to MYCN.
N-terminally His-tagged bHLHZip c-MYC (353–437) and bHLHZip MYCN (380–464) proteins were over-expressed in E. coli BL21 (DE3) bacteria (Stratagene) at 37°C in LB media with kanamycin. Cultures were induced with Isopropyl β-D-1-thiogalactopyranoside (0,1 mg/ml) at an OD of 0.6 and harvested after 4 hours. […] Protein concentrations were determined by SDS-page comparing purified proteins to a standard curve of BSA loaded on the gel.
(§3) Surface Plasmon Resonance (SPR) experiments were performed using a Biacore T200 (GE Healthcare) instrument at 25°C. […] The obtained data was analyzed by the Biacore T200 Evaluation Software 2.0 (GE Healthcare). […]

The target in experiment [2] is T2, bHLHZip domain of human MYCN (380–464) (Homo sapiens, UniProt P04198).
T2 construct: N-terminally His-tagged bHLHZip c-MYC (353–437) and bHLHZip MYCN (380–464) proteins were over-expressed in E. coli BL21 (DE3); made in house; host or cells: E. coli BL21 (DE3)
Description: Surface plasmon resonance binding to bHLHZip of MYCN. To be noted: SPR, 25°C, steady state, mean ± SD. The procedure: as §1, §2
N-terminally His-tagged bHLHZip c-MYC (353–437) and bHLHZip MYCN (380–464) proteins were over-expressed in E. coli BL21 (DE3) bacteria (Stratagene) at 37°C in LB media with kanamycin. Cultures were induced with Isopropyl β-D-1-thiogalactopyranoside (0,1 mg/ml) at an OD of 0.6 and harvested after 4 hours. After sonication of the proteins in 50 mM NaH2PO4, 100 mM NaCl and 10 mM Tris-HCl (pH = 8,0) for 6×30 seconds, the pellet was resuspended in 100 mM NaH2PO4, 10 mM Tris-HCl, 10 mM imidazole and 8 M urea (pH = 8,0) prior to additional sonication for 6×30 seconds. The proteins were then loaded onto a Ni-Sepahrose High Performance His-Trap column (GE Healthcare), washed with ten column volumes of 100 mM NaH2PO4, 10 mM Tris-HCl, 40 mM imidazole and 8 M urea (pH = 8,0) and finally eluted with two column volumes 100 mM NaH2PO4, 10 mM Tris-HCl, 500 mM imidazole and 8 M urea (pH = 8,0). Fractions without visible higher molecular mass contaminations, as judged by SDS-page, were pooled and refolded by dialysis in 50 mM NaH2PO4, 100 mM NaCl, 10 mM Tris-HCl (pH = 8,0), 5 mM EDTA, 2 mM DTT and decreasing concentrations of urea (6 M, 4 M, 2 M and 0 M). […] Protein concentrations were determined by SDS-page comparing purified proteins to a standard curve of BSA loaded on the gel.
as §3

The next experiment addresses T3, MYCN/MAX interaction (Homo sapiens, UniProt P04198).
T3 construct: endogenous in cells; host or cells: SMS-KCN69n (human MYCN-amplified neuroblastoma)
T3 sequence (P04198 1-464): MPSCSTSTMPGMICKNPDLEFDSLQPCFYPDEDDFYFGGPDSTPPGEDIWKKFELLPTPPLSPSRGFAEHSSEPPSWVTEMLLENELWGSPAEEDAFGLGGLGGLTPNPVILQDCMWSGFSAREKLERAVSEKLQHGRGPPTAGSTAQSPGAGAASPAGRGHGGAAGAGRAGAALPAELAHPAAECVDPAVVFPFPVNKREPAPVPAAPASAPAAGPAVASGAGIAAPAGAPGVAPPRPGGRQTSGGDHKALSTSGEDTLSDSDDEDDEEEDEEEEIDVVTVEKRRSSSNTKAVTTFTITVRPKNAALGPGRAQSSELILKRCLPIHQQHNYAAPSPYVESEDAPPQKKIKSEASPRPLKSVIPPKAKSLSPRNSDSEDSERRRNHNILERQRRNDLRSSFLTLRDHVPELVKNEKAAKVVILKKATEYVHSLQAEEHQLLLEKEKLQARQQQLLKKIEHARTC
Description: Proximity ligation assay (PLA) for MYCN/MAX interaction in SMS-KCN69n cells. It is filed as cell-based. The text has this:
To investigate if the other small molecules also have an effect on MYCN/MAX dimerization we performed a proximity ligation assay (PLA) using MYCN-amplified SMS-KCN69n NB cells. […] No signal was detected in any of the experimental negative controls (Figure S4).
Figure 3 Reduction of MYCN/MAX interaction in NB cells after treatment with small molecules. A) Proximity ligation assay (PLA) for MYCN/MAX interaction after treatment of SMS-KCN69n cells with the different small molecules at the indicated concentrations for 6 hours. […] DNA is stained with DAPI. Scale bar: […]. The pictures are representative from three independent experiments. B) Quantification of the PLA signals per cell after treatment with the different compounds. Error bars indicate standard error of the mean.
40×10^3 SMS-KCN69n cells were seeded on collagen coated coverslips and grown for 24 hours and treated for 6 hours the next day. After 6 hours the cells were washed in PBS and treated as previously described. The PLA assay was performed after manufacturer's instructions with the Duolink kit (Olink, Uppsala, Sweden). The cells were incubated with primary antibody against MYCN (NCMII100, St Cruz Bio) 1∶500 and Max (C-17, St Cruz Bio) 1∶500 for 1 hour in a humidity chamber at 37°C, which were diluted in antibody diluent provided by the manufacturer. MYCN (1∶500) and FAS (A-20, St Cruz Bio) 1∶500 as well as MAX (1∶500) and GFP (C-2, St Cruz Bio) 1∶500 antibodies were used in combination in order to test for any unspecific binding of the secondary antibodies or unspecific signals. […]
The confocal images of the cells were acquired at 63× magnification using a motorized axiovert fluorescence microscope 200 M LCI (Zeiss GmBH, Göttingen, Germany) including a CSU10 Yokogawa head; a multilens/multipinhole array aperture (Yokogawa, Japan), an ORCA ER cold CCD camera; detector array 1344×1024px (Hammamatsu, Japan) and two continuous wave diode-pumped solid-state (DPSS) lasers for fluorescence excitation (Cobolt, Sweden); Cobolt Calypso 491 nm DPSS (excitation of green PLA fluorophore) and Cobolt Jive 561 nm DPSS (excitation of Alexa Fluor 568). […] A total amount of at least 120 cells were analyzed for all compounds. The PLA signals were analyzed using the open source image analysis program Image J (NIH, Bethseda, USA) and the amount of PLA signal per cell was calculated. Two persons analyzed the images independently in a blind fashion.
In order to quantify the PLA signal from the total z-depth of each cell confocal z-stacks was projected in z and identically processed regarding background subtraction. The PLA signal was then quantified blindly and automatically using a find maxima-based algorithm in ImageJ (plugin routine developed by Dr. E. Flaberg and Professor L. Szekely, KI and available upon request). […]

T1 sequence (P01106 368-452): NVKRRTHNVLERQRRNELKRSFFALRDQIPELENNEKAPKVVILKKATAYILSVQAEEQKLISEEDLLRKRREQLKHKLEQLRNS

`CCc1ccc(C=C2SC(=O)NC2=O)cc1` [C-m/z 232]: the pKd is 4.08 in experiment [1] and 4.06 in experiment [2]. Further, the “effect on MYCN/MAX interaction (PLA) at 112.5 µM” value at MYCN/MAX interaction (112.5 µM) is on record as “not able to effect the MYCN/MAX interaction”. For the same molecule, on MYCN/MAX interaction (6 hours treatment, compared to DMSO), the “effect on MYCN/MAX interaction (PLA)” value is given as “did not affect MYCN/MAX dimer formation”.
